The values that follow come from ChEMBL document CHEMBL1201862, “PubChem BioAssay data set” (2004).

Experiment [1] has as its target T1, Cytochrome P450 3A4 (Homo sapiens, UniProt P08684). Conditions: Potency.
Experiment [2] can be described thus: Luminescence Cell-Based Dose Confirmation HTS to Identify Activators of 5'UTR Stem-Loop Driven Alpha-Synuclein mRNA Translation in H4 Neuroglioblastoma Cells. [Related pubchem assays: 1829 (Project Summary), 1814 (Primary HTS)]. Type of experiment: functional.
A short description of experiment [3]: Luminescence Cell-Based Dose Response HTS to Identify Activators of Luciferase Translation or Activity in H4 […] Cells. [Related pubchem assays: 1829 (Project Summary), 1814 (Primary HTS)]. Type of experiment: functional.
In a further experiment the test system is H4. The experiment in a line: Luminescence Cell-Based Dose Response HTS to Identify Activators of 5'UTR Stem-Loop Driven Prion Protein mRNA Translation in H4 Neuroglioblastoma Cells. [Related pubchem assays: 1829 (Project Summary), 1814 (Primary HTS)]. Type of experiment: functional. Conditions: Homo sapiens.
Experiment [4] addresses T2, RNA-binding protein pos-1 (Caenorhabditis elegans, UniProt G5EF15).
T2 sequence (G5EF15 whole entry): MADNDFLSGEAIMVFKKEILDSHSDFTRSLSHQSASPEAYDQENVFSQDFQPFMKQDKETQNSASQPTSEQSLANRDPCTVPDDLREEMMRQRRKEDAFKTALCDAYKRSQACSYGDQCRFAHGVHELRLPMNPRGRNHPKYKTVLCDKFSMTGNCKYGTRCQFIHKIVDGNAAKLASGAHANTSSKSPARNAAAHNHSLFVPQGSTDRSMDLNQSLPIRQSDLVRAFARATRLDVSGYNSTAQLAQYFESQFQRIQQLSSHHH
The experiment in a line: inhibitors of POS-1/mex-3 RNA binding, dose response, biochemical, fluorescence polarization (AID 1964).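 Further: purified POS-1 fused to maltose binding protein made in E. coli; potency of compounds blocking POS-1 binding to fluorescent RNA.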

Experiment [5] addresses T3, Zinc finger protein mex-5 (Caenorhabditis elegans, UniProt Q9XUB2).
T3 sequence (Q9XUB2 whole entry): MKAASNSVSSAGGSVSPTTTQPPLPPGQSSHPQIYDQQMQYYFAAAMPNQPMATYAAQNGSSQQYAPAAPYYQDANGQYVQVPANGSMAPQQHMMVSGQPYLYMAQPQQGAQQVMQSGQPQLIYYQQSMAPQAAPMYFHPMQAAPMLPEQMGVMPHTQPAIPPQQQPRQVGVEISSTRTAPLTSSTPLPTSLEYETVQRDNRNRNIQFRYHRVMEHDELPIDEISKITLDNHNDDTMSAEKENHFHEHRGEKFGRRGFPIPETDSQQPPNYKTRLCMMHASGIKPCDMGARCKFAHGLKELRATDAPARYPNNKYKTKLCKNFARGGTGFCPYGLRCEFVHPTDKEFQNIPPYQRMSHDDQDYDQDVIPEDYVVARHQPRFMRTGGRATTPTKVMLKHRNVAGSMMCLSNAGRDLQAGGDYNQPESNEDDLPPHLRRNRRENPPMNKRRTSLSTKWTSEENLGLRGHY
The experiment in a line: MEX-5/TCR-2 RNA interaction inhibitors, dose response, biochemical, C. elegans, fluorescence polarization (AID 1960).

In a further experiment the test system is H9c2. The experiment in a line: cells. The following applies: Rattus norvegicus, H9c2, Myocardium. Type of experiment: functional, cell-based.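 Further: confirmatory concentration-response retest of ultra-high-throughput screening hits for modulation of myocardial damage; cell death induced by hydrogen peroxide oxidative stress; compound pretreatment for 60 min then peroxide exposure for 2 h; potency is for protecting the cells against peroxide damage rather than for killing them.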
Experiment [6] in a line: inhibitors of intracellular T. cruzi replication, confirmation, NIH3T3 host cells, beta-gal luminescence (AID 2044).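 Further: intracellular parasites grown in NIH/3T3 mouse fibroblasts as host cells; luminescent beta-galactosidase reporter signal from transgenic T. cruzi replicating inside host cells; inhibitors lower the luminescence signal.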 It counts as functional, cell-based.
Experiment [7] is described as follows: cytotoxicity toward NIH3T3 fibroblasts, dose response, counter-screen, cell-based, ATP luminescence, mouse fibroblasts (AID 2010).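 Further: cells exposed to compound for about 90 hours before reading.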 Type of experiment: functional. (Counterscreens check selectivity or assay interference.)
The next experiment relates to INS1. The experiment can be described thus: beta cell apoptosis inhibitors, cytokine rescue, dose response, luminescence, retest (AID 449756).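 Further: cell death triggered by IL-1 beta plus TNF-alpha plus IFN-gamma mixture; protective hits raise ATP signal compared with cytokine alone wells.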 Conditions: Rattus norvegicus. It counts as functional, cell-based.
Experiment [8] has as its target T1, Cytochrome P450 3A4.
For experiment [9], the system named is Streptococcus sp. 'group A'. The experiment can be described thus: growth inhibition of control SK(-) GAS strain, dose response, counter-screen for streptokinase expression inhibitor project, luminescence, kanamycin, BacTiterGlo, confirmation (AID 1900). Type of experiment: functional, organism-based.
A further experiment deals with T4, Streptokinase A (Streptococcus pyogenes serotype M1, UniProt P10520).
T4 sequence (P10520 whole entry): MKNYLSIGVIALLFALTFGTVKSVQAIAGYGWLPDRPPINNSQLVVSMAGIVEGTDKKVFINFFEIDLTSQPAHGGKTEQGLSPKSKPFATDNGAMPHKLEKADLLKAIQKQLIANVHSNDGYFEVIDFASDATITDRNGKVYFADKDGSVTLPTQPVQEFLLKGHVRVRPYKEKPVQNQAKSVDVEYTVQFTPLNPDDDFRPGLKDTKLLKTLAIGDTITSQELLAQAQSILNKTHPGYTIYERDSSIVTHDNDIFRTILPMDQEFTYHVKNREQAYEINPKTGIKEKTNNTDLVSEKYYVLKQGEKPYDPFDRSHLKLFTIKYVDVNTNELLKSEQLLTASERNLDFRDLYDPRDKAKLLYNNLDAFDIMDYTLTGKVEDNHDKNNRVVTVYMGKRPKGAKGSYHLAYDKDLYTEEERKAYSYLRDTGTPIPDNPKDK
The experiment can be described thus: S. pyogenes streptokinase expression inhibitors, potency, dose response, plasminogen activation absorbance, OD405 (AID 1914).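 Further: secreted streptokinase activity via plasminogen activation per viability signal from cell pellet.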 It counts as functional, Streptococcus pyogenes M1 GAS.

The subject of the next experiment is Streptococcus. The experiment in a line: Group A Streptococcus viability loss, dose response, counter-screen for streptokinase expression inhibitor project, luminescence, BacTiterGlo (AID 1915).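 Further: potency for reduction of bacterial viability or growth.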 It counts as functional, organism-based.

Active and inactive are the calls of the source. For most assays here, no stated cut-off is given here; in the data, actives have a measured EC50 and inactives only a lower limit.

Broadly, the AC50 is the concentration at which the activity in the assay is half-maximal. As usually defined, the EC50 is the concentration at which the effect is half-maximal. By IC50 is commonly meant the concentration needed to halve the response being measured.

T1 sequence (P08684 whole entry): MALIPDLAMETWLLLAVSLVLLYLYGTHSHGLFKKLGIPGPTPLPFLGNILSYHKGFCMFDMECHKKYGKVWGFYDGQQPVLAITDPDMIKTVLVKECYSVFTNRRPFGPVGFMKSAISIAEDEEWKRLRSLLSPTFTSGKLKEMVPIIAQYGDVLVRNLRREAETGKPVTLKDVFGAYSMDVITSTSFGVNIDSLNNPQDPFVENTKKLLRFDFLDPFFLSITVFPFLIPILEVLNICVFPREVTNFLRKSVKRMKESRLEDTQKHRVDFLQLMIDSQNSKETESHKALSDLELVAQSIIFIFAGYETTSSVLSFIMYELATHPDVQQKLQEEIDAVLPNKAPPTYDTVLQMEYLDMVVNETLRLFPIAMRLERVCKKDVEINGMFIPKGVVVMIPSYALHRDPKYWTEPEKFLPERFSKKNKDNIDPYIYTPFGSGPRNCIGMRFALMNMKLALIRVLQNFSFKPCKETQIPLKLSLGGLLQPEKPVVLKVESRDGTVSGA

As for `CCC1OC(=O)C(C)[C@@H](O[C@H]2C[C@@](C)(OC)C(O)C(C)O2)C(C)[C@@H](O[C@@H]2OC(C)CC(N(C)C)C2O)[C@@](C)(O)CC(C)C(=O)[C@@H](C)C(O)[C@]1(C)O` (stereo not given in full), the AC50 on Cytochrome P450 3A4 [1] is 31.6 µM (inconclusive).

For `CCCc1cc(C(=O)NCC(C)C)no1`, the EC50 in experiment [2] is 14.8 µM (active); in experiment [3], 22.9 µM (active).

In the case of `Cc1cc(Nc2nc3ccccc3nc2Cl)n(-c2ccccc2)n1`, the EC50 (in experiment [2]; in experiment [3]; in the experiment with H4) was > 120 µM (not active) throughout.

For `COC(c1ccccc1)C(C)C(OC)C(C)C(OC)C(C)C(C)=O` (stereo not given), the AC50 on Cytochrome P450 3A4 [1] was 3.98 µM (inconclusive).

In the case of `COc1cc(C=O)c([N+](=O)[O-])cc1OC`, the concentration at half-maximal activity (AC50) at Cytochrome P450 3A4 [1] is 25.1 µM (inconclusive).

`O=C(CCN1C(=O)C2CC=C(Cl)CC2C1=O)N1CCCCC1` (stereo not given): the EC50 in experiment [4] is 29.5 µM (active); in experiment [5], 18.1 µM (active).

For `COc1ccc2cc(-c3[nH]ncc3CN3CCCCO3)ccc2c1`, the EC50 was > 120 µM (not active) in experiment [2], 25 µM (active) in experiment [3] and > 60 µM (not active) in the experiment with H4.

As for `O=C(NNC(=O)c1ccccc1O)c1ccco1`, the results for the EC50 in experiment [4] and in experiment [5] were 24 µM (active) and 19.4 µM (active), respectively.

For the compound `COC(=O)c1cc2ccccn2c2c(C(=O)OC)c(C(=O)OC)cc1-2`, the IC50 in the experiment on H9c2 was > 79 µM (inactive).

On to `CCc1nnc2c3cnn(-c4ccccc4)c3ncn12`, for which the EC50 in experiment [2] was 5.12 µM (active); in experiment [3] it was 113 µM (active); with H4, > 120 µM (not active).

As for `Cc1ccc(S(=O)(=O)N2CCOCC2)cc1NC(=O)CN(C)C1CCS(=O)(=O)C1` (stereo not given), the concentration for a half-maximal effect (EC50) in [4] and in experiment [5] was > 300 µM (not active) in each case.

For the compound `N#Cc1ccc(C23CC4(C2)[C@H](CN(Cc2ccc(C(F)(F)F)cc2)[C@@H]4c2ccccc2)C3c2ccccc2)cc1` (stereo not given in full), on Cytochrome P450 3A4 [1], the AC50 is 25.1 µM (inconclusive).

For the compound `COC(=O)c1ccc(C23CC4(C2)[C@H](CN(C)[C@@H]4c2ccccc2)C3c2ccccc2)cc1` (stereo not given in full), the AC50 at Cytochrome P450 3A4 [1] is 12.6 µM (inconclusive).

Turning to `Cc1cc(Nc2nc3ccccc3nc2Cl)n(-c2ccc([N+](=O)[O-])cc2)n1`, the EC50 in experiment [6] was 2.24 µM (active); in experiment [7] it was > 60 µM (not active). Besides, in the experiment with INS1, the AC50 was 8.83 µM (active).

Consider `COc1ccc2occ(C(=O)c3coc4ccc(O)c(CN(C)C)c34)c2c1`, for which the IC50 in the experiment with H9c2 is > 79 µM (inactive).

For the compound `Cn1nc(C(=O)Nc2nc(-c3ccccn3)cs2)c2ccccc2c1=O`, the IC50 in the experiment with H9c2 was > 79 µM (inactive).

In the case of `CCCCC(=O)Nc1cc(C)c2c(=O)oc3ccccc3c2n1`, the IC50 in the experiment on H9c2 is > 79 µM (inactive).

As to `CN1CCCc2cc3c(C(F)(F)F)cc(=O)oc3nc21`, the concentration for a half-maximal effect (EC50) in experiment [4] is 24.9 µM (active); in experiment [5] it was 25.7 µM (inconclusive).

For the compound `Cc1nc(/N=N\c2cc(S(=O)(=O)O)c3cc([N+](=O)[O-])cc(S(=O)(=O)O)c3c2)c(COP(=O)(O)O)c(C=O)c1O`, the half-maximal activity concentration (AC50) on Cytochrome P450 3A4 [1] was 15.8 µM (inconclusive).

`CC(C)CCn1cc[n+](C2=C([N-]S(=O)(=O)c3ccccc3)C(=O)c3ccccc3C2=O)c1`: in the experiment with INS1, the AC50 is 4.76 µM (active).

Take `Cc1ccc(N2C(=O)/C(=C/c3ccc(CN(CCC#N)S(C)(=O)=O)o3)C(=O)NC2=S)cc1C`: the EC50 in experiment [4] was 15.5 µM (active); in experiment [5] it was 9.89 µM (active). In addition, the AC50 on Cytochrome P450 3A4 [8] was 22.4 µM (inconclusive).

On to `Cc1cccc(OCCn2c(NC(=O)c3ccco3)nc3ccccc32)c1`, for which the EC50 is 4.74 µM (active) in experiment [9]; > 150 µM (not active) on Streptokinase A; 1.69 µM (active) in [6]; 29.8 µM (active) in experiment [7]; 7.32 µM (active) in the experiment with Streptococcus. For the same compound, the half-inhibitory concentration (IC50) in the experiment on H9c2 was 11 µM (active).

Turning to `Cc1ccc(-c2nnc(O)c3ccccc23)cc1N`, in the experiment with H9c2, the IC50 was 34.5 µM (inactive).

Take `CN(C)S(=O)(=O)c1ccc(NC(=O)COC(=O)Cn2[nH]c(=O)c3ccccc3c2=O)cc1`: in the experiment on H9c2, the IC50 is > 79 µM (inactive).

Turning to `CC(Cc1cccs1)NC(=O)NC1CCCCC1` (stereo not given), the EC50 is > 60 µM (not active) in [2], 68.9 µM (active) in [3] and 39.8 µM (active) in the experiment with H4.

For the compound `C=C1CC[C@@H]2O[C@@]2(C)CC[C@H]2[C@H]1CC2(C)C`, the AC50 on Cytochrome P450 3A4 [1] was 39.8 µM (inconclusive).

On to `N#CC1=C(N)OC2=C(C(=O)CCC2)C12C(=O)N1CCCc3cccc2c31` (stereo not given), for which the EC50 in experiment [4] and in [5] was > 300 µM (not active) each time.

`Cc1sc(/C=C2\C(=O)ON=C2c2ccccc2)cc1Br`: the 50% effective concentration (EC50) in experiment [4] was 24.1 µM (inconclusive); in [5] it was 7.46 µM (inconclusive).

Turning to `O=C(CSc1nc(O)c(Cc2ccccc2)c(O)n1)c1ccccc1`, the EC50 in experiment [2] was 14.7 µM (active); in [3], > 120 µM (not active); with H4, 14.4 µM (active).

`COCCNC(=O)Cc1c(C)c2c(cc(C)c3c(C(C)(C)C)coc32)oc1=O`: the EC50 in experiment [2] was > 120 µM (not active); in experiment [3], 10.1 µM (active); with H4 it was > 120 µM (not active).

As to `Cc1ccc2[nH]c(SCc3nc(O)c4ccccc4n3)nc2c1`, the IC50 in the experiment with H9c2 is > 79 µM (inactive).

On to `Cc1cc(C2(c3cc(C)c(O)cc3C)OS(=O)(=O)c3ccccc32)c(C)cc1O`, for which, on Cytochrome P450 3A4 [1], the AC50 is 7.94 µM (inconclusive).

`Cc1c(OCC(=O)NCCN2CCOCC2)ccc2c1oc(=O)c1ccccc12`: the IC50 with H9c2 is > 79 µM (inactive).

Take `Cc1nc2ccccc2c(=O)[nH]1`: the IC50 in the experiment with H9c2 is > 79 µM (inactive).

`BrC1C(Br)C(Br)C(Br)C(Br)C1Br` (stereo not given): at Cytochrome P450 3A4 [1], the AC50 was 15.8 µM (inconclusive).

For `CCCCCCCCCc1ccc(O)cc1` [4-NONYLPHENOL], the AC50 on Cytochrome P450 3A4 [1] was 31.6 µM (inconclusive).

Regarding `C=C1CCC(=O)C(C)CCC2C1CC2(C)C` (stereo not given) [DIHYDROCARYOPHYLLEN-5-ONE], at Cytochrome P450 3A4 [1], the AC50 was 25.1 µM (inconclusive).
